Laboratory results: patent US20260014147A1, “STAT6 DEGRADERS” (Gilead Sciences, Inc., priority 2024, published 2026)

Target: T1, STAT6 (endogenous, HiBiT-tagged) in HeLa LgBiT clone 4.14 cells (Homo sapiens, UniProt P42226)
T1 construct: These cells express endogenous STAT6; host or cells: HeLa LgBiT clone 4.14
T1 sequence (P42226 1-847): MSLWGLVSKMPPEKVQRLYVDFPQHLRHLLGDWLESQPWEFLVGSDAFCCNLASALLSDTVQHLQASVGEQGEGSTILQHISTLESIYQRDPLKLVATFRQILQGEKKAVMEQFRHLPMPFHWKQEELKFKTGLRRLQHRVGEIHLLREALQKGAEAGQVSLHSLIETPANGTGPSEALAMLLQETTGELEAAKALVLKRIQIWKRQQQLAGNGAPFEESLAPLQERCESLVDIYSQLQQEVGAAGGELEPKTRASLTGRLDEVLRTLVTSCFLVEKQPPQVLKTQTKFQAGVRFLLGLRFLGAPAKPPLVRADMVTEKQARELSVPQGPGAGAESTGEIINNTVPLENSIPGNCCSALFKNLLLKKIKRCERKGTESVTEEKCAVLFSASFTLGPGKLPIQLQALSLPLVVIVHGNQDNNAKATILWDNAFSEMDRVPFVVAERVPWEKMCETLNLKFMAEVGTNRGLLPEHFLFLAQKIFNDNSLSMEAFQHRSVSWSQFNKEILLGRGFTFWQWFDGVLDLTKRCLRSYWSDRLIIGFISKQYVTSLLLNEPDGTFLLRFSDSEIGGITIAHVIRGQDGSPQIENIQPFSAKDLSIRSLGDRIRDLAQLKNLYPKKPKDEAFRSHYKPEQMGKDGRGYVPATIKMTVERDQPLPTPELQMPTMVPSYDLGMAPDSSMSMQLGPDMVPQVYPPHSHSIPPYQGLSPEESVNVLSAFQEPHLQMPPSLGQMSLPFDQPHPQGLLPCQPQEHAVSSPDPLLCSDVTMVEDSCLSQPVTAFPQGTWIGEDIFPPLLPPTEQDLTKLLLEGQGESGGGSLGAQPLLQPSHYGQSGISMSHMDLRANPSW
Experiment: STAT6 Degrader Assay (HiBiT based, HeLa LgBiT clone 4.14 cells, luminescence, DC50)
Assay type: cell-based
Conditions: DC50 provided for test compounds with >80% Emax, geometric mean, read-out: STAT6 degradation DC50
Procedure, shortened: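 HeLa LgBiT clone 4.14 cells carry CRISPR-inserted HiBiT on endogenous STAT6; 5000 cells/well were exposed to compound for 4-24 h at 37 °C, 5% CO2. Nano-Glo substrate added for 0.5 h; luminescence reflects remaining STAT6, with terfenadine ([…]) wells defining 100% degradation.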

Row | DC50 [nM] | Compound
1 | 18 | C[C@@H](c1cc2c(-c3ccc4[nH]ncc4c3)ccnc2n1C)N1CCC(c2ccc(C(=O)N3CCC(CN4CCN(c5ccc(NC6CCC(=O)NC6=O)c(F)n5)CC4)CC3)cc2)CC1 (stereo partly drawn) [Example 2n7, 3-((6-(4-((1-(4-(1-((S)-1-(4-(1H-indazol-5-yl)-1-methyl-1H-pyrrolo[2,3-b]pyridin-2-yl)ethyl)-piperidin-4-yl)benzoyl)piperidin-4-yl)methyl)piperazin-1-yl)-2-fluoropyridin-3-yl)amino)piperidine-2,6-dione]
2 | 49 | CNc1ccc(-c2ccnc3c2cc([C@H](C)N2CCC(c4ccc(C(=O)N5CCC(CN6CCN(c7ccc(NC8CCC(=O)NC8=O)c(F)n7)CC6)CC5)cc4)CC2)n3C)cn1 (stereo partly drawn) [Example 2n14, 3-((2-fluoro-6-(4-((1-(4-(1-((S)-1-(1-methyl-4-(6-(methylamino)pyridin-3-yl)-1H-pyrrolo[2,3-b]pyridin-2-yl)ethyl)piperidin-4-yl)benzoyl)piperidin-4-yl)methyl)piperazin-1-yl)pyridin-3-yl)amino)piperidine-2,6-dione]

Continued, compound first:

Row | Compound | DC50 [nM]
3 | C[C@@H](c1cc2c(-c3ccc4[nH]ncc4c3)ccnc2n1C)N1CCC(c2ccc(C(=O)N3CCC(CN4CCN(c5ncc(NC6CCC(=O)NC6=O)cc5F)CC4)CC3)cc2)CC1 (stereo partly drawn) [Example 2n8, 3-((6-(4-((1-(4-(1-((S)-1-(4-(1H-indazol-5-yl)-1-methyl-1H-pyrrolo[2,3-b]pyridin-2-yl)ethyl)-piperidin-4-yl)benzoyl)piperidin-4-yl)methyl)piperazin-1-yl)-5-fluoropyridin-3-yl)amino)piperidine-2,6-dione] | 6.5
4 | CNc1ccc(-c2ccnc3c2cc([C@H](C)N2CCC(c4ccc(C(=O)N5CCC(CN6CCN(c7ncc(NC8CCC(=O)NC8=O)cc7F)CC6)CC5)cc4)CC2)n3C)cn1 (stereo partly drawn) [Example 2n13, 3-((5-fluoro-6-(4-((1-(4-(1-((S)-1-(1-methyl-4-(6-(methylamino)pyridin-3-yl)-1H-pyrrolo[2,3-b]pyridin-2-yl)ethyl)piperidin-4-yl)benzoyl)piperidin-4-yl)methyl)-piperazin-1-yl)pyridin-3-yl)amino)piperidine-2,6-dione] | 30

Same assay, conditions: Emax provided for test compounds with <80% Emax (and 2c15), geometric mean, read-out: STAT6 degradation Emax

Row | Emax [%] | Compound
5 | 70 to 80 | COCc1nc2cc(-c3ccnc4c3cc([C@H](C)N3CCC(c5ccc(C(=O)N6CCC(CN7CCN(c8ccc(NC9CCC(=O)NC9=O)c(F)n8)CC7)CC6)cc5)CC3)n4C)ccc2[nH]1 (stereo partly drawn) [Example 2n11, 3-((2-fluoro-6-(4-((1-(4-(1-((S)-1-(4-(2-(methoxymethyl)-1H-benzo[d]-imidazol-5-yl)-1-methyl-1H-pyrrolo[2,3-b]pyridin-2-yl)ethyl)piperidin-4-yl)benzoyl)-piperidin-4-yl)methyl)piperazin-1-yl)pyridin-3-yl)amino)piperidine-2,6-dione]
6 | 79.3 | CNc1ccc(-c2ccnc3c2cc([C@H](C)N2CCC(c4ccc(C(=O)N5CCC(CN6CCN(c7ncc(NC8CCC(=O)NC8=O)cc7F)CC6)CC5)cc4)CC2)n3C)cn1 (stereo partly drawn) [Example 2n13, 3-((5-fluoro-6-(4-((1-(4-(1-((S)-1-(1-methyl-4-(6-(methylamino)pyridin-3-yl)-1H-pyrrolo[2,3-b]pyridin-2-yl)ethyl)piperidin-4-yl)benzoyl)piperidin-4-yl)methyl)-piperazin-1-yl)pyridin-3-yl)amino)piperidine-2,6-dione]
7 | 50 to 60 | CN(C(=O)c1ccc(C2CCN(Cc3cc4c(-c5ccc(N)nc5)ccnc4n3C)CC2)cc1)c1ccc(CC2CCN(c3ccc(NC4CCC(=O)NC4=O)cc3)CC2)cc1 (centres unmarked) [Example 2o1, 4-(1-((4-(6-aminopyridin-3-yl)-1-methyl-1H-pyrrolo[2,3-b]pyridin-2-yl)-methyl)piperidin-4-yl)-N-(4-((1-(4-((2,6-dioxopiperidin-3-yl)amino)phenyl)piperidin-4-yl)methyl)phenyl)-N-methylbenzamide]
8 | 60 to 70 | CN(C(=O)c1ccc(C2CCN(Cc3cc4c(-c5ccc6[nH]ncc6c5)ccnc4n3C)CC2)cc1)c1ccc(CC2CCN(c3ccc(NC4CCC(=O)NC4=O)cc3)CC2)cc1 (centres unmarked) [Example 2o2, 4-(1-((4-(1H-indazol-5-yl)-1-methyl-1H-pyrrolo[2,3-b]pyridin-2-yl)methyl)-piperidin-4-yl)-N-(4-((1-(4-((2,6-dioxopiperidin-3-yl)amino)phenyl)piperidin-4-yl)methyl)-phenyl)-N-methylbenzamide]
